# Patent US12552783B2, “Modulators of proteolysis and associated methods of use” (Arvinas Operations, Inc., priority 2018, dated 2026)
# Assays:
# Format in all cases: cell-based
# [1] = molecular target: T1, KRas^G12C (Homo sapiens, UniProt P01116, G12C); assay: Western blot mobility shift of KRas after treating cells with bifunctional compound (FIGS. 2A and 2B); settings: for KRas degrader activity (representative Western blot): FIG. 2A / FIG. 2B; for covalent modification of KRas seen by gel shift: upper band is KRas and the bifunctional compound, lower band is KRas alone
# T1 construct: endogenous in cells
# From the text: FIGS. 2A and 2B show the result of treating cells with either a bifunctional compound alone or a bifunctional compound and an E3 ubiquitin ligase inhibitor, and then detecting the KRas protein on the gel. The mobility shift of KRas detection on the gel illustrates that the bifunctional compounds covalently modify KRas. The upper band is KRas and the bifunctional compound, while the lower band is KRas alone.
# [2] = molecular target: T2, KRas (Homo sapiens, UniProt P01116, G12C); assay: KRas degradation in NCI-H2030 cells by Western blot, normalized to GAPDH (data of Table 14); set-up: host or cells: NCI-H2030
# Summary of the method: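 After a day without serum, the G12C-homozygous cells received each compound at 0.3, 1 and 3 μM, with VHL-based degraders left for 24 h and other compounds for 72 h. DC50 is the concentration giving half-maximal degradation and DMax the maximal degradation, both taken from KRas levels normalized to GAPDH.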
# [3] = molecular target: T1, KRas^G12C; assay: Western blot of KRas G12C degradation and gel shift (FIGS. 2A and 2B); settings: for covalent modification of KRas^G12C, as seen by the gel shift: Western blot gel shift, FIGS. 2A and 2B; for degrader potency shown by Western blot: FIG. 2A / FIG. 2B
# [4] = molecular target: T2, KRas; assay: KRas degradation in SW1573 cells by Western blot, normalized to GAPDH (data of Table 14)
# Summary of the method: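 SW1573 cells, homozygous for the KRas G12C mutation and maintained in DMEM with 10% FBS and 1% penicillin-streptomycin, were seeded in 12-well plates, allowed to attach overnight at 37° C. under 5% CO2, then serum-starved for 24 hours before compound exposure. KRas levels were measured by Western blot, normalized to GAPDH, and compared with DMSO controls to give percent degradation, DC50 and Dmax.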
structure (smiles),measurement,setting,value
"C=CC(=O)N1CCN(c2nc(O[C@H](C)CN3CCC(OCCOCCOCC(=O)N[C@H](C(=O)N4C[C@H](O)C[C@H]4C(=O)N[C@@H](C)c4ccc(-c5scnc5C)cc4)C(C)(C)C)CC3)nc3c(F)c(-c4cc(O)cc5ccccc45)c(Cl)cc23)CC1 [compound 399, (2S,4R)-1-((2S)-2-(2-(2-(2-((1-((2R)-2-((4-(4-acryloylpiperazin-1-yl)-6-chloro-8-fluoro-7-(3-hydroxynaphthalen-1-yl)quinazolin-2-yl)oxy)propyl)piperidin-4-yl)oxy)ethoxy)ethoxy)acetamido)-3,3-dimethylbutanoyl)-4-hydroxy-N-((S)-1-(4-(4-methylthiazol-5-yl)phenyl)ethyl)pyrrolidine-2-carboxamide]",KRas degrader activity (representative Western blot),[1],potent degrader
same,covalent modification of KRas seen by gel shift,[1],covalently modify KRas^G12C
same,DC50,[2]; H2030,≥ 1000 nM
same,Percent Degradation at Indicated Concentration (μM),"[2]; H2030, 0.03 μM",C (Percent Degradation: C ≤ 35)
same,Percent Degradation at Indicated Concentration (μM),"[2]; H2030, 0.1 μM",C (Percent Degradation: C ≤ 35)
same,Percent Degradation at Indicated Concentration (μM),"[2]; H2030, 0.3 μM",C (Percent Degradation: C ≤ 35)
same,Percent Degradation at Indicated Concentration (μM),"[2]; H2030, 1 μM",C (Percent Degradation: C ≤ 35)
same,Percent Degradation at Indicated Concentration (μM),"[2]; H2030, 3 μM",B (35 < B < 70)
same,Percent Degradation at Indicated Concentration (μM),"[2]; H2030, 10 μM",C (Percent Degradation: C ≤ 35)
same,Dmax,[2]; NCI-H2030,35 to 70%
same,"covalent modification of KRas^G12C, as seen by the gel shift",[3],covalently modify KRas^G12C
same,degrader potency shown by Western blot,[3],potent degrader
same,DC50,[4]; SW1573,< 100 nM
same,Dmax,[4]; SW1573,35 to 70%
same,Percent Degradation at Indicated Concentration (μM),"[4]; SW1573, 0.03 μM",C (Percent Degradation: C ≤ 35)
same,Percent Degradation at Indicated Concentration (μM),"[4]; SW1573, 0.1 μM",B (35 < B < 70)
same,Percent Degradation at Indicated Concentration (μM),"[4]; SW1573, 0.3 μM",B (35 < B < 70)
same,Percent Degradation at Indicated Concentration (μM),"[4]; SW1573, 1 μM",B (35 < B < 70)
same,Percent Degradation at Indicated Concentration (μM),"[4]; SW1573, 3 μM",B (35 < B < 70)
same,Percent Degradation at Indicated Concentration (μM),"[4]; SW1573, 10 μM",C (Percent Degradation: C ≤ 35)
"C=CC(=O)N1CCN(c2nc(O[C@H](C)CN3CCN(CC4CCN(c5ccc6c(c5)C(=O)N(C5CCC(=O)NC5=O)C6=O)CC4)CC3)nc3c(F)c(-c4cc(O)cc5ccccc45)c(Cl)cc23)CC1 (stereo partly drawn) [compound 432, 5-(4-((4-((2R)-2-((4-(4-acryloylpiperazin-1-yl)-6-chloro-8-fluoro-7-(3-hydroxynaphthalen-1-yl)quinazolin-2-yl)oxy)propyl)piperazin-1-yl)methyl)piperidin-1-yl)-2-(2,6-dioxopiperidin-3-yl)isoindoline-1,3-dione]",KRas degrader activity (representative Western blot),[1],less active degrader
same,covalent modification of KRas seen by gel shift,[1],covalently modify KRas^G12C
same,"covalent modification of KRas^G12C, as seen by the gel shift",[3],covalently modify KRas^G12C
same,degrader potency shown by Western blot,[3],less potent degrader
same,Percent Degradation at Indicated Concentration (μM),"[4]; SW1573 cells, 0.1 μM",C (Percent Degradation: C ≤ 35)
same,Percent Degradation at Indicated Concentration (μM),"[4]; SW1573 cells, 0.3 μM",C (Percent Degradation: C ≤ 35)
same,Percent Degradation at Indicated Concentration (μM),"[4]; SW1573 cells, 1 μM",C (Percent Degradation: C ≤ 35)
